# Data: PubChem BioAssay AID1033 (Sanford-Burnham Center for Chemical Genomics, 2008)
# Calls of active or inactive are those of the source. How the calls were made is not given here.
# Target: Chaperone protein DnaK (Escherichia coli (strain K12)) (UniProt P0A6Y8)
# Test: E. coli DnaK SBD ligand binding – biophysical, NMR, chaperone (AID 1033)
# Details: Purified DnaK SBD
# Chaperone protein DnaK (Escherichia coli (strain K12)), sequence (P0A6Y8 whole entry, looked up): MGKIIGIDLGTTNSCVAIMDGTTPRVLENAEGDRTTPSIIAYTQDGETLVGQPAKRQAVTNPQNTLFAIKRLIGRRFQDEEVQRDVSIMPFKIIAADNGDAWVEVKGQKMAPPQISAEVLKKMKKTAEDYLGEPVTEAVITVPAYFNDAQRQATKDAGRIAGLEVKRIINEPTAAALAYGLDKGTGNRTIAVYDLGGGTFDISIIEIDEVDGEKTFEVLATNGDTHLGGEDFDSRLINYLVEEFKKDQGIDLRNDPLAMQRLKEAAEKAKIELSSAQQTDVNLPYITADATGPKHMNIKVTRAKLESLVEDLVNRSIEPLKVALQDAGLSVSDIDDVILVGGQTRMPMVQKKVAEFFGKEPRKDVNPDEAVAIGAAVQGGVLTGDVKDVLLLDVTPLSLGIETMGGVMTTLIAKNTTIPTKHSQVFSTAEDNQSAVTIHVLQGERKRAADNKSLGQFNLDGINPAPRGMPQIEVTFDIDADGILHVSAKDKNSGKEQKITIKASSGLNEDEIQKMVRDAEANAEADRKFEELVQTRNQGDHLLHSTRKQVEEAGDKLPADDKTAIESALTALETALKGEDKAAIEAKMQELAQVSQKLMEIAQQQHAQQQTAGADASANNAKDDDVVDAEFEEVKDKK
row,SMILES,Kd
1,COc1ccc(S(=O)(=O)NCCO)cc1,> 4 mM (inactive)
2,O=C(O)c1ccc(-n2cncn2)cc1,> 4 mM (inactive)
3,CCNC(=S)NS(=O)(=O)c1ccccc1,> 4 mM (inactive)
4,O=C(Nc1cccc(O)c1)c1ccccc1,> 4 mM (inactive)
5,O=c1n(-c2cccc(Cl)c2)c(=O)n2n1CCC2,> 4 mM (inactive)
6,O=C(O)Cc1noc2ccccc12,> 4 mM (inactive)
7,COc1cc(C2NC(=S)NC(C)=C2C(C)=O)ccc1O (stereo not given),> 4 mM (inactive)
8,CC(C)n1c(-c2ccncc2)n[nH]c1=S,> 4 mM (inactive)
9,Cc1nnc(N2CCN(c3ccccc3)CC2)[nH]c1=O,> 4 mM (inactive)
10,Cc1n[nH]c(C)c1NC(=O)c1cccc(F)c1,> 4 mM (inactive)
11,C[C@H]1OC(O[C@H]2[C@@H](O)CC(O[C@H]3[C@@H](O)C[C@H](O[C@H]4CC[C@]5(C)C6CC[C@]7(C)[C@@H](C8=CC(=O)OC8)[C@@H](O)C[C@]7(O)[C@@H]6CC[C@@H]5C4)O[C@@H]3C)O[C@@H]2C)C[C@H](O)C1O (stereo not given in full),> 4 mM (inactive)
12,O=C(Nc1ccon1)c1ccc(Br)o1,> 4 mM (inactive)
13,CCOC(=O)CC1Sc2ccccc2NC1=S (stereo not given),> 4 mM (inactive)
14,Cc1sc2nc(C)n(NC(N)=O)c(=O)c2c1C,> 4 mM (inactive)
15,CC(C)c1nnc(N)s1,> 4 mM (inactive)
16,CCOC(=O)c1c[nH]c2c(F)cccc2c1=O,> 4 mM (inactive)
17,CNC(=S)N1CCN=C1Nc1nc(C)cc(C)n1,> 4 mM (inactive)
18,CN(C)C(=O)CSc1nc(N)cc(=O)[nH]1,> 4 mM (inactive)
19,O=C(O)CCC1NCC2CC1CN1CCCCC21 (stereo not given),> 4 mM (inactive)
20,CC(=O)c1ccc(NC(=O)c2ocnc2C)cc1,> 4 mM (inactive)
21,COc1ccc(S(N)(=O)=O)cc1,> 4 mM (inactive)
22,CN1CC(=O)N=C1N,> 4 mM (inactive)
23,Cc1cc(Oc2ccccc2)nc(N)n1,> 4 mM (inactive)

row,SMILES,Kd
1,Cn1c(CN)nc2ccccc21,> 4 mM (inactive)
2,CC1(C)Cc2cccc(C(=O)O)c2O1,> 4 mM (inactive)
3,O=C(/C=C/C=C/c1ccc2c(c1)OCO2)N1CCCCC1,> 4 mM (inactive)
4,OC[C@H]1O[C@@H](O[C@H]2[C@H](O)[C@@H](O)[C@@H](O)O[C@@H]2CO)[C@H](O)[C@@H](O)[C@@H]1O,> 4 mM (inactive)
5,CC1(C)Cc2nc(N3CCOCC3)c(C#N)cc2CO1,> 4 mM (inactive)
6,CC1(C(=O)O)CC2C=CC1C2 (stereo not given),> 4 mM (inactive)
7,O=C(NCc1ccncc1)c1cccc(F)c1,> 4 mM (inactive)
8,COc1ccccc1/C=C/CN1CCOCC1,> 4 mM (inactive)
9,Oc1ccc2nonc2c1,> 4 mM (inactive)
10,Nc1nncn1C(=O)c1c(Cl)cccc1Cl,> 4 mM (inactive)
11,CN(C)C(=S)Nc1nc2ccccc2s1,> 4 mM (inactive)
12,CCn1c2ccccc2c2nn(C)c(=N)nc21,> 4 mM (inactive)
13,CC(C)=CCOc1c2occc2cc2ccc(=O)oc12,> 4 mM (inactive)
14,Cc1cccc(NC(=O)c2ccc(=O)[nH]n2)c1,> 4 mM (inactive)
15,Cc1nnc(NC(=O)C(C)Sc2nncn2C)s1 (stereo not given),> 4 mM (inactive)
16,CNS(=O)(=O)c1cccs1,> 4 mM (inactive)
17,CCOC(=O)c1cc2ccccc2oc1=O,> 4 mM (inactive)
18,COc1ccc2c(c1)O[C@@H]1COc3cc(OC)c(OC)cc3[C@@H]1C2=O,> 4 mM (inactive)
19,COc1cc(O)c2c(c1)C(=O)c1cc(C)cc(O)c1C2=O,> 4 mM (inactive)
20,O=c1/c(=C/c2ccccc2F)sc2ncnn12,> 4 mM (inactive)
21,Cn1c(O)c(C=NCC2CCNCC2)c(=O)n(C)c1=O,> 4 mM (inactive)
22,O=C(c1ccccc1)N1CCN(c2ccccc2F)CC1,> 4 mM (inactive)
23,CCOC(=O)c1[nH]c(C)cc1C,> 4 mM (inactive)

row,SMILES,Kd
1,COC(=O)CSc1nnc(-c2ccc(C(=O)O)cc2)o1,> 4 mM (inactive)
2,Nc1ncnc2nc[nH]c12,> 4 mM (inactive)
3,Cc1ccc(CN2C3=NC(=O)CN3c3ccccc32)cc1,> 4 mM (inactive)
4,O=C1C2C3CCC(O3)C2C(=O)N1c1cccc(F)c1 (stereo not given),> 4 mM (inactive)
5,c1cncc(C2CCCCN2)c1 (stereo not given),> 4 mM (inactive)
6,O=c1[nH]c(=O)n(-c2ccc(F)cc2)c(O)c1/C=C1/C=CC=N1,> 4 mM (inactive)
7,Cc1cc(O)c2c(c1)C(=O)c1cccc(O)c1C2=O,> 4 mM (inactive)
8,Nc1nnc(SCc2cccnc2)s1,> 4 mM (inactive)
9,O=C(CN1C(=O)CCC1=O)c1ccccc1,> 4 mM (inactive)
10,CCc1nnc(NC(C)=O)s1,> 4 mM (inactive)
11,O=C(Nc1ccon1)c1csc2ccccc12,> 4 mM (inactive)
12,COC(=O)c1c(SC)nc(-c2ccccc2)[nH]c1=O,> 4 mM (inactive)
13,O=C(O)CCC(=O)NCc1cccnc1,> 4 mM (inactive)
14,Nc1ccc2c(C(F)(F)F)cc(=O)oc2c1,> 4 mM (inactive)
15,Cc1cc(C)n(-c2nc(N)cc(=O)[nH]2)n1,> 4 mM (inactive)
16,O=C(Nc1nncs1)Oc1ccccc1,> 4 mM (inactive)
17,CCOc1ccc(C)cc1S(=O)(=O)n1ccc(C)n1,> 4 mM (inactive)
18,OC1CC(c2ccccc2)NC2(CCCC2)C1 (stereo not given),> 4 mM (inactive)
19,O=C1NC(=O)/C(=C\c2ccncc2)S1,> 4 mM (inactive)
20,Cc1c(CO)cnn1-c1ccccc1,> 4 mM (inactive)
21,Cc1occc1C(=O)Nc1nnc(C(F)(F)F)s1,> 4 mM (inactive)
22,Cc1c(C)[n+]([O-])c(-c2ccc([N+](=O)[O-])cc2)n1O,> 4 mM (inactive)
23,NC1CCN(Cc2ccccc2)CC1,> 4 mM (inactive)

row,SMILES,Kd
1,Cc1oc(-c2ccccc2)cc1C(N)=O,> 4 mM (inactive)
2,O=C(O)Cn1cc(C(F)(F)F)ccc1=O,> 4 mM (inactive)
3,CCN1CCN(CCCNc2ncnc3nc[nH]c23)CC1,> 4 mM (inactive)
4,NC1=NC(=O)/C(=C/c2ccc(O)c(Cl)c2)S1,> 4 mM (inactive)
5,O=C(O)C1CCCCN1Cc1ccccc1 (stereo not given),> 4 mM (inactive)
6,COc1cc2c(cc1-c1coc3c4c(c(OC)cc3c1=O)OC(C)(C)C=C4)OCO2,> 4 mM (inactive)
7,O=C(Nc1cccnc1)c1cnn2cccnc12,> 4 mM (inactive)
8,CC(=O)c1cccc(NS(=O)(=O)N(C)C)c1,> 4 mM (inactive)
9,NC1=NC(=O)C(Cc2ccccc2)S1 (stereo not given),> 4 mM (inactive)
10,COc1ccc2c(c1)OC/C(=C\c1ccc(OC)c(O)c1)C2=O,> 4 mM (inactive)
11,O=C(O)C1CCCN1Cc1c[nH]c2ccccc12 (stereo not given),> 4 mM (inactive)
12,NC(=O)CSc1ccc(Br)cc1,> 4 mM (inactive)
13,NCCNC(=S)Nc1ccccc1,> 4 mM (inactive)
14,O=C(Nc1cccc2ncccc12)c1cccnc1,> 4 mM (inactive)
15,NC(=O)c1ccc(N2CCCCC2)c(N)c1,> 4 mM (inactive)
16,O=C(O)CCC(=O)Nc1ccccc1F,> 4 mM (inactive)
17,Cc1cc(C(=O)Nc2sc3c(c2C#N)CCC3)no1,> 4 mM (inactive)
18,CC(C)C1COc2cc3oc(=O)ccc3cc2O1 (stereo not given),> 4 mM (inactive)
19,Oc1ccc2c(c1)OCC1(O)Cc3cc(O)c(O)cc3C21 (stereo not given),> 4 mM (inactive)
20,O=C(OC[C@H]1O[C@H](OC(=O)c2cc(O)c(O)c(OC(=O)c3cc(O)c(O)c(O)c3)c2)[C@H](OC(=O)c2cc(O)c(O)c(OC(=O)c3cc(O)c(O)c(O)c3)c2)[C@@H](OC(=O)c2cc(O)c(O)c(OC(=O)c3cc(O)c(O)c(O)c3)c2)[C@@H]1OC(=O)c1cc(O)c(O)c(OC(=O)c2cc(O)c(O)c(O)c2)c1)c1cc(O)c(O)c(OC(=O)c2cc(O)c(O)c(O)c2)c1,> 4 mM (inactive)
21,O=C(Nn1cnnc1)c1cc2c(s1)CCCC2,> 4 mM (inactive)
22,CCC(=O)NC(=S)Nc1ccc(C(N)=O)cc1,> 4 mM (inactive)
23,Cc1c(C(=O)Nc2cnccn2)oc2ccccc12,> 4 mM (inactive)

row,SMILES,Kd
1,O=C(O)c1cccnc1-c1nc2ccccc2s1,> 4 mM (inactive)
2,Cn1nnc2cc(C(=O)O)ccc21,> 4 mM (inactive)
3,Clc1ccccc1-c1nc(-c2cccnc2)no1,> 4 mM (inactive)
4,O=C(c1ccc(F)cc1)N1CCN(c2ncccn2)CC1,> 4 mM (inactive)
5,Nc1nnc(SCc2ccc(F)cc2Cl)s1,> 4 mM (inactive)
6,COC1=CC23CCCN2CCc2cc4c(cc2C3C1O)OCO4 (stereo not given),> 4 mM (inactive)
7,N#Cc1nc(-c2cccs2)oc1N1CCOCC1,> 4 mM (inactive)
8,O=C(Cn1cncn1)c1ccc(F)c(F)c1,> 4 mM (inactive)
9,OC[C@@H](O)[C@@H](O[C@@H]1O[C@H](CO)[C@@H](O)[C@H](O)[C@H]1O)[C@H](O)[C@@H](O)CO,> 4 mM (inactive)
10,Nc1[nH]c(=S)[nH]c(=O)c1-c1ccccc1,> 4 mM (inactive)
11,CN1C(=O)c2ccc(C(=O)NCc3ccccc3)cc2C1=O,> 4 mM (inactive)
12,CCN(CC)C(=O)c1n[nH]c(=O)c2ccccc12,> 4 mM (inactive)
13,Nc1cc(=O)[nH]c(SCC(=O)NC2CCCCC2)n1,> 4 mM (inactive)
14,COc1ccc(C2(CN)CCOCC2)cc1OC,> 4 mM (inactive)
15,OCc1ccc(CN2CCOCC2)cc1,> 4 mM (inactive)
16,CC(C)(C)CC(=O)NNC(=O)c1cnccn1,> 4 mM (inactive)
17,C=C1C2CC[C@H]3[C@]4(C)C[C@H](OC5OC(CO)C(OS(=O)(=O)O)C(OS(=O)(=O)O)C5OC(=O)CC(C)C)C[C@@H](C(=O)O)[C@H]4CC[C@]3(C2)[C@H]1O (stereo not given in full),> 4 mM (inactive)
18,O=Cc1c(N2CCOCC2)nc2ccccn2c1=O,> 4 mM (inactive)
19,CN1C(=O)CC[C@H]1c1cccnc1,> 4 mM (inactive)
20,O=C(O)c1coc2c1C(=O)CCC2,> 4 mM (inactive)
21,C[C@H]1CCCC(=O)CCC/C=C/c2cc(O)cc(O)c2C(=O)O1,> 4 mM (inactive)
22,O=C(O[C@@H]1Cc2c(O)cc(O)cc2O[C@@H]1c1cc(=O)c(O)c2c(O)c(O)cc([C@H]3Oc4cc(O)cc(O)c4C[C@H]3O)c2c1)c1cc(O)c(O)c(O)c1,> 4 mM (inactive)
23,N#Cc1nc(N2CCCCC2)nc(N2CCOCC2)n1,> 4 mM (inactive)
